# Columns and labels:
# [1] = set-up: method as in PMID 25681129; conditions: cited from earlier work
# [2] = Allicin bioavailability or bioequivalence bioassay: 32-h breath allyl methyl sulfide (AMS) concentration curve after consumption; assay type: in vivo, human; conditions: two tests, same person
# [3] = set-up: method as in doi:10.1055/s-2006-959976; conditions: added to whole blood; cited from earlier work
# [4] = cited from earlier work
smiles,measurement,setting,value
"C=CCSCC(N)C(=O)O (stereo not shown) [S-allyl-cysteine, S-allylcysteine]",Administered dose accounted for among the urinary metabolites,[1],13%
same,Dose in urine as SAC plus N-acetyl-SAC,[1],1%
same,Dose in urine as alliin plus N-acetyl-alliin,[1],12%
same,Unknown metabolites,[1],87%
C=CC[S+]([O-])C[C@H](N)C(=O)O (mixture of isomers) [L(±)-alliin],"Differences in Tmax, RF2, or RRF2 versus natural L(+)-alliin",[2],No significant differences
"C=CCS[S+]([O-])CC=C (stereo not shown) [allicin, diallyl thiosulfinate]",Half-life of metabolism to allyl mercaptan,[3],< 1 min
same,Share of the allicin consumed accounted for by breath AMS,[4],at least 90%

# — paper PMC6073756, “Allicin Bioavailability and Bioequivalence from Garlic Supplements and Garlic Foods” (Nutrients, 2018)
